Laboratory results as given in US20130059818A1, “CARBOSILANE DENDRIMERS AND THE USE THEREOF AS ANTIVIRAL AGENTS” (UNIVERSIDAD DE ALCALA DE HENARES (UAH), priority 2010, published 2013).
Entries after “also recorded” stand apart in the source; their conditions may differ.

What was measured:
[1] = system: HEC-1A (human endometrial epithelial cells); assay: LDH assay in HEC-1A; format: cell-based
Text: This technique (CytoTox 96® Non-Radioactive Cytotoxicity Assay) was used to test the damage in the cell membrane surface due to the presence of anionic peripheral groups of dendrimers. The lactate dehydrogenase (LDH) is an enzyme that is released into the cytoplasm due to cell lysis. The LDH assay, therefore, is a measure of membrane integrity, which is based on the oxidation of LDH to pyruvate and reduction of tetrazolium salts to formazan crystals by pyruvate.
1*10^5 cells/well were dispensed in 96-well plate round bottom in a volume of 100 μL of complete medium and the dendrimer was added in a volume of 100 μL, to obtain a final volume of 200 μL in the well. Controls: 1. 200 μL of complete medium without cells (background control), 2. 100 μL of cells+100 μL of complete medium, 3. 100 μL of cells+100 μL of Triton X-100 0.2% 4. 100 μL of cells+100 μL with the dendrimer to the desired concentration. Incubated in culture conditions during the first 24 h. Plate was centrifuged at 1500 rpm 10 minutes and removed 100 μL of supernatant, being careful not to take the cells. 100 μL of reaction mixture prepared at the time on the 100 μL was added of supernatant and incubated at room temperature for 30 minutes in darkness. Finally, measured at 490 nm and 690 nm reference. The cytotoxicity was obtained from the following formula: Cytotoxicity (%)=(4−2)/(3−2)*100 […]

[2] = system: X4 HIV NL4.3 and R5 HIV Bal; assay: CDi, CDm and macrophages pre-treatment; format: cell-based, HIV-1; conditions: pretreated 1 h, 50 ng virus
Procedure: Once the cells were differentiated, they were washed twice with PBS and 2*10^5 CDi, 2*10^5 CDm and 10^5 macrophages were dispensed in 200 μL of complete medium in bottom p96 wells. The dendrimer were added one hour prior to the infection. After adding the viral particles (50 ng), they were incubated in culture conditions and after 3 hours the supernatant was retired and washed 4 times with PBS. The supernatant was collected after 4 days. The viral concentration was quantified by ELISA.

[3] = system: HIV (X4 and R5-tropic virus); assay: Inhibition of transcytosis through HEC-1A monolayer (transwell); format: cell-based
Procedure: To obtain a perfect monolayer of polarized epithelial cells, the HEC-1A were grown in complete medium on a permeable polycarbonate support of 0.4 μm pore (Costar, Cambridge, Mass.). Then, 2*10^5 cells by well were cultivated for 7 days, with media changes every 2-3 days. The dendrimer were added one hour prior to the infection. […] The viral concentration was quantified by ELISA.
To reproduce in the best possible way the role that the anionic dendrimer develop on the surface of the endometrium and to study the passage of virions through the mucosal stratified vaginal epithelium, we used transwell devices that recreate the phenomenon of transcytosis (transport of macromolecules from the extracellular space to another through the cytoplasm of a cell via an endocytic vesicle) due to the possibility of forming a perfect monolayer of adherent cells on the inside and collect information from the supernatants of the apical and basolateral side of the monolayer. […]

PBMC [4] = assay: Lymphoproliferative assay (BrdU incorporation); design: Mitogenic effect of dendrimer alone (BrdU incorporation): dose or concentration left out as unconfirmed
PBMC [5] = assay: MTT assay in PBMC; format: cell-based, human; conditions: 10 μM
Procedure: (§1) This method was selected to analyze detrimental intracellular effects on mitochondria and metabolic activity. The colorimetric MTT test, based on the selective ability of viable cells to reduce MTT to purple formazan, relies on intact metabolic activity and is frequently used for cytotoxicity screening. […] The concentration of formazan was then determined spectrophotometrically in a plate reader at a wavelength of 570 nm (test) and 690 nm (reference). The spectrophotometer was calibrated to zero absorbance by using Optimem medium without cells. The percentage cell viability relative to control wells (cells with no dendrimer) was calculated by ([A]test/[A]control)T100. […]

[6] = system: TNF-alpha transcriptional activity (pTNF-luc); assay: Transfection of Jurkat cells with pTNF-luc plasmid; format: cell-based; conditions: 5 and 10 micromolar, 16 hours, versus control cells without stimulating
Procedure: Inflammation experiments: the experiments were conducted with transient transfection using plasmid indicators pTNF-luc and pNF-κB-luc containing 3 copies in tandem of site NF-κB of the promoter. The Jurkat cell line was nucleofected with the AMAXA nucleofector following the commercial house protocol “cell line nucleofector kit V” and the specific programme used in the X-005. Transfected cells were stimulated for 16 hours with the different stimuli that appear in the graphs (TNF-alpha, antibody monoclonal anti-TNF-alpha and different concentrations (5 and 10 micromolar) of the anionic sulfonate dendrimer). After different treatments, the transfected cells were collected by centrifugation and lysed with commercial tampon lysis “Dual-luciferase Assay System Kit” (Promega), according to the manufacturer's recommendations. The amount of protein in 5 μl of lysed cell was measured by the method of BSA-BCA (Pierce, Rockford, USA). Once quantified, the values of all the samples were normalized to 20 micrograms to measure the luciferase activity for about 10 seconds in a luminometer 1450 Microbeta Luminiscence Counter (Walax, Trilux). Luciferasa activity of firefly values are expressed as induction with respect to cells control. […]

PBMC [7] = assay: LDH assay in PBMC; format: cell-based, human
Text: This technique (CytoTox 96® Non-Radioactive Cytotoxicity Assay) was used to test the damage in the cell membrane surface due to the presence of anionic peripheral groups of dendrimers. The lactate dehydrogenase (LDH) is an enzyme that is released into the […] due to cell lysis. The LDH assay, therefore, is a measure of membrane integrity, which is based on the […] and reduction of tetrazolium salts to formazan crystals by […].
1*10^5 cells/well were dispensed in 96-well plate round bottom in a volume of 100 μL of complete medium and the dendrimer was added in a volume of 100 μL, to obtain a final volume of 200 μL in the well. Controls: 1. 200 μL of complete medium without cells (background control), 2. 100 μL of cells+100 μL of complete medium, 3. 100 μL of cells+100 μL of Triton X-100 0.2% 4. 100 μL of cells+100 μL with the dendrimer to the desired concentration. Incubated in culture conditions during the first 24 h. Plate was centrifuged at 1500 rpm 10 minutes and removed 100 μL of supernatant, being careful not to take the cells. 100 μL of reaction mixture prepared at the time on the 100 μL was added of supernatant and incubated at room temperature for 30 minutes in darkness. Finally, measured at 490 nm and 690 nm reference. The cytotoxicity was obtained from the following formula: Cytotoxicity (%)=(4−2)/(3−2)*100

[8] = system: HIV-1 NL4.3 (X4 tropic) and HIV-1 BaL (R5 tropic); assay: Action mechanism: virus treated with dendrimer before exposure to PBMC; format: cell-based; conditions: 10 μM, 4 days of culture
Procedure: It was used for this experiment a 96 well plate of flat bottom with Poli-L-lysine (PLL, Sigma® covering the bottom of the well. For this purpose, 50 uL of PLL were incubated at 37° C. for one hour. After washing the wells three times with PBS, 4 ng of HIV were incubated overnight at 4° C., to ensure that the virus particles were adhered to the bottom of the well. Each well was washed three times with PBS to remove HIV not adhered to the plate and then each well was treated with different dendrimer concentrations for 1 h. Afterward, it was necessary to washed the product with PBS and PBMC previously stimulated were added. The supernatant of this cell culture was recovered after 4 days and p24 antigen was quantified by ELISA to assess the amount of HIV produced by the PBMC in different treatments. As positive control of lysis of the viral particles Triton x-100 (1%) was used.
After verifying the effectiveness of the dendrimer to block adherence and internalization of virus particles, we proceeded to try to understand the mechanism of action. To this end, we designed an experiment that consisted of exposing the viral particles to the presence of dendrimer, to then use this combination in stimulated PBMC cultures (prepared for the viral infection). […]

NF-kB (pNF-kB-luc) = assay: Transfection of Jurkat cells with pNF-kB-luc plasmid; format: cell-based
Procedure: Inflammation experiments: the experiments were conducted with transient transfection using plasmid indicators pTNF-luc and pNF-κB-luc containing 3 copies in tandem of site NF-κB of the promoter. The Jurkat cell line was nucleofected with the AMAXA nucleofector following the commercial house protocol “cell line nucleofector kit V” and the specific programme used in the X-005. Transfected cells were stimulated for 16 hours with the different stimuli that appear in the graphs (TNF-alpha, antibody monoclonal anti-TNF-alpha and different concentrations (5 and 10 micromolar) of the anionic sulfonate dendrimer). […] The amount of protein in 5 μl of lysed cell was measured by the method of BSA-BCA (Pierce, Rockford, USA). Once quantified, the values of all the samples were normalized to 20 micrograms to measure the luciferase activity for about 10 seconds in a luminometer 1450 Microbeta Luminiscence Counter (Walax, Trilux). Luciferasa activity of firefly values are expressed as induction with respect to cells control.
Jurkat cells were transfected with the pNF-kB-luc plasmid, they were cultivated in the presence of sulfonate (10 micromolar) for 16 hours and the luciferasa activity was measured. […] The results presented are expressed as standardized induction index with the values of cell controls without treatment control and it is a representative of three independent experiments.

HIV-1 NL4.3 = assay: PBMC pre-treatment / post-treatment infection inhibition; format: cell-based
Procedure: We used 2*10^5 stimulated PBMC cells dispensed in 200 μL of complete medium in round bottom wells of p96 plate. […] After this time, the wells were washed twice with PBS and were incubated in culture conditions. The viral concentration after 3 days was quantified by ELISA of p24.

[9] = system: HEC-1A (human endometrial epithelial cells); assay: MTT assay in HEC-1A; format: cell-based; conditions: up to 10 μM, FIG. 13A
Procedure: as §1

Compound: Cc1ccc(C(=O)Nc2ccc(S(=O)(=O)O)c3cc(S(=O)(=O)O)cc(S(=O)(=O)O)c23)cc1NC(=O)c1cccc(NC(=O)Nc2cccc(C(=O)Nc3cc(C(=O)Nc4ccc(S(=O)(=O)O)c5cc(S(=O)(=O)O)cc(S(=O)(=O)O)c45)ccc3C)c2)c1 [Suramin, reference compound]
- LDH release ([1]; after an hour of contact): did not show toxicity
- Decrease of p24 antigen in immature dendritic cells [2]: significant
- Reduction of passage of viral particles through the monolayer ([3]; 70 ng Bal virus, 1 h pretreatment, basolateral supernatant after 48 h, FIG. 20): lacks the inhibitory effect
- Inhibitory effect on passage of viral particles through the monolayer ([3]; R5-tropic virus, positive control): no inhibitory effect

Compound: G1-[Si(CH2)3N(CH2CH2SO3Na)2]8 [G2SF16]
- Effect on mitogenic effect of PHA, treatment at the same time as PHA (PBMC [4]; PBMC, 4 days): slightly decreases the mitogenic effect
- Mitogenic effect of dendrimer alone (BrdU incorporation) (PBMC [4]; PBMC, 4 days): no mitogenic effect
- BrdU incorporation in PBMC previously stimulated with PHA (PBMC [4]; PHA for 3 days, then 4 days of treatment, FIG. 4B): decrease in BrdU incorporation; also recorded: inhibits the mitogenic effect of PHA
- Mitochondrial activity (MTT) (PBMC [5]): optimal mitochondrial activity
- Promoter activity of the pTNF-luc plasmid [6]: two to three times lower
- Decrease of p24 antigen in immature dendritic cells [2]: significant
- p24 in the supernatant of macrophages [2]: clear decrease of p24
- Damage to the cell membrane (LDH) (PBMC [7]): low damage
- Concentration from which toxicity was presented (LDH) (PBMC [7]; 24 hours): ≥ 10 µM
- HIV (p24) in supernatant of PBMC after virus treated with dendrimer [8]: low prevalence of HIV
- Activity of the pNF-kB-luc plasmid (NF-kB (pNF-kB-luc); 10 micromolar, 16 hours): decrease in the activity of the pNF-kB-luc plasmid; also recorded: decreases the transcriptional activity of NF-kappa
- Induction of NF-kB-luc by TNF-alpha (NF-kB (pNF-kB-luc); sulfonate + TNF-alpha): reversal of the induction of NF-kB-luc
- Inhibition of infection, post-treatment (HIV-1 NL4.3; PBMC infected first, then dendrimer): 60%
- Inhibition of infection, pre-treatment (HIV-1 NL4.3; PBMC treated with dendrimer prior to infection by HIV-1 NL4.3): 80%
- Reduction of passage of viral particles through the monolayer ([3]; 5 μM, both X4 and R5 virus, basolateral supernatant at 24 and 48 hours): 40%

Compound: mannan [reference compound]
- Decrease of p24 antigen in immature dendritic cells [2]: significant

Compound: dextran
- LDH in the supernatant with regard to the control ([1]; 24 hours of treatment): ~10%

Compound: ck-G1-[Si(CH2)4(N3C2H)CH2N(CH2CH2COONa)2]8 [G2CKCOO16]
- Cell viability (MTT toxicity curve) [9]: good cell viability

Compound: ck-G1-[Si(CH2)4(N3C2H)CH2N(CH2PO(OMe)2)2]8 [G2CKP32]
- Cell viability (MTT toxicity curve) [9]: good cell viability
